Several values for one entry are separate records, joined by “and”; a condition that tells them apart may be missing. Equal values may be shown once. Read-outs that look alike come from different tables or passages of the source. Each block holds one molecule with its values, some of them ahead of it.
Assays:
[1] = target: T1, synthetic peptide, Aβ (10-43) (Homo sapiens, UniProt P05067); test: Inhibition of [14C]Chrysamine G binding to Aβ (10-43); settings: for binding affinity in words: inhibition of [14C]Chrysamine G binding to Aβ (10-43), compared with Chrysamine G
T1 construct: The 10-43 amino acid fragment of Aβ was synthesized; made in house; host or cells: chemical (FMOC) peptide synthesis, no expression host
T1 sequence (P05067 681-714): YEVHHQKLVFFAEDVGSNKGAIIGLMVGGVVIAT
Method: (§1) Binding assays were performed in 12×75 mm borosilicate glass tubes. […] To the above solution, 25 μl of a 0.36 mg/ml suspension of Aβ (10-43) in H2O was added and 10% ethanol was added to bring the volume to 950 μl. […] The binding mixture was incubated for 30 min at room temperature.
Ki is defined as IC50/(1+[L]/KD ), where [L] is the concentration of [^14C]

[2] = Octanol/water partitioning; type: physicochemical; settings: for octanol/water partition coefficient: 1-octanol / phosphate buffered saline pH 7.4
Method: The mixture was then centrifuged at 1,000 g to facilitate the formation of two clear phases. […] Concentrations were determined after correction for the molar absorptivity differences in the two solvents and the partition coefficient expressed as the concentration in the octanol layer divided by the concentration in the aqueous layer. Experiments were done in triplicate.

[3] = test system: rat pheochromocytoma (PC-12) cells; settings: for effect on toxicity induced by 1 μM Aβ (25-35): MTT reduction (FIG. 14)
Method: Rat pheochromocytoma cells (PC-12) were grown in RPMI 1640 media with 10% fetal bovine serum. Approximately 5,000 exponentially growing cells were plated in 96-well plates in a volume of 100 μl of media and allowed to incubate at 37° C. overnight. […] The cells were incubated for 24 hrs prior to the addition of 13.3 μl of 5 mg/ml MTT (3,(4,5-dimethylthiazol-2-yl)2,5-diphenyltetrazolium bromide) in sterile phosphate buffered saline. After 4.5 hrs at 37° C., 100 μl of extraction buffer (20% w/v SDS in 50% DMF/water; pH adjusted to 4.7 with 2.5% of 80% acetic acid and 2.5% 1N HCl) was added and the plates were incubated overnight. Hansen et al., J. Immunol. Methods 119: 203 (1989). Color development was then measured at 560 nm. Maximum viability was defined as the absorbance of control wells to which only the 20 μl of distilled, deionized H2O was added. Maximum toxicity was defined by wells in which the cells were lysed by addition of 0.1% (final concentration) of Triton X-100.

[4] = test system: rat pheochromocytoma (PC-12) cells; settings: previously reported; cited from earlier work
[5] = guinea pigs; cited from earlier work
[6] = test system: AD brain homogenates; test: [14C]CG binding to AD brain homogenates; settings: for total binding, AD: high and low-plaque AD brains combined
Method: (§2) Autopsy brain samples were obtained from the Neuropathology Core of the Alzheimer's Disease Research Center of the University of Pittsburgh. […] Brain samples from eight control (ages 58-75), eleven AD (ages 61-84), and two Down syndrome brains were studied. There were six high-plaque (>20 NPs/×200 magnification) and five low-plaque (<20 NPs/×200 magnification) AD brains. […] Autopsy samples were immediately frozen at −70° C. and stored at that temperature until homogenized. […] The Bielschowsky silver impregnation method was used to identify NPs and NFTs and Congo red staining was used to identify cerebral amyloid angiopathy.
(§3) Aliquots of 25-150 μl tissue (about 25-300 μg of protein by the method of Lowry et al., J. Biol, Chem. 193: 265 (1951)) were incubated in 12×75 mm borosilicate glass tubes at room temperature with 10-750 nM [^14C]CG (26.8 Ci/mole) in a final volume of 1.0 ml of 10% ethanol for 30 min at room temperature. The standard conditions employed about 150 μg of protein and 75 nM [^14C]CG for the cerebellar ratio studies and about 75 μg of protein and 150 nM [^14C]CG for the correlative studies with NPs, NFTS, and amyloid angiopathy. Ethanol was necessary to prevent the micelle formation which occurs with diazo dye derivatives, since the micelles are trapped by the filter even in the absence of tissue. Bound and free radioactivity were separated by vacuum filtration through Whatman GF/B filters using a Brandel M-24R Cell Harvester (Gaithersburg, Md.) followed by two 3-ml washes with 10% ethanol at room temperature. Filters were equilibrated overnight in 4 ml Cytoscint®-ES scintillant (ICN Biomedicals, Inc., Irvine, Calif.) in 7.0 ml plastic scintillation vials before counting. Saturable (specific) binding was defined as total binding minus residual (non-saturable) binding in the presence of 20 μM unlabelled CG. In all binding assays, incubations were done at least in triplicate and the results expressed as mean±standard error unless otherwise specified. Results were expressed either in absolute terms of fmol [^14C]CG bound/μg protein in a given brain area, or as a ratio of the fmol/μg protein in that brain area to the fmol/μg protein in the cerebellum of the same brain.

[7] = target: AD brain homogenates (Homo sapiens, UniProt P05067); test: [14C]CG binding to AD brain homogenates
Chain of AD brain homogenates (Homo sapiens, UniProt P05067) (P05067 18-770): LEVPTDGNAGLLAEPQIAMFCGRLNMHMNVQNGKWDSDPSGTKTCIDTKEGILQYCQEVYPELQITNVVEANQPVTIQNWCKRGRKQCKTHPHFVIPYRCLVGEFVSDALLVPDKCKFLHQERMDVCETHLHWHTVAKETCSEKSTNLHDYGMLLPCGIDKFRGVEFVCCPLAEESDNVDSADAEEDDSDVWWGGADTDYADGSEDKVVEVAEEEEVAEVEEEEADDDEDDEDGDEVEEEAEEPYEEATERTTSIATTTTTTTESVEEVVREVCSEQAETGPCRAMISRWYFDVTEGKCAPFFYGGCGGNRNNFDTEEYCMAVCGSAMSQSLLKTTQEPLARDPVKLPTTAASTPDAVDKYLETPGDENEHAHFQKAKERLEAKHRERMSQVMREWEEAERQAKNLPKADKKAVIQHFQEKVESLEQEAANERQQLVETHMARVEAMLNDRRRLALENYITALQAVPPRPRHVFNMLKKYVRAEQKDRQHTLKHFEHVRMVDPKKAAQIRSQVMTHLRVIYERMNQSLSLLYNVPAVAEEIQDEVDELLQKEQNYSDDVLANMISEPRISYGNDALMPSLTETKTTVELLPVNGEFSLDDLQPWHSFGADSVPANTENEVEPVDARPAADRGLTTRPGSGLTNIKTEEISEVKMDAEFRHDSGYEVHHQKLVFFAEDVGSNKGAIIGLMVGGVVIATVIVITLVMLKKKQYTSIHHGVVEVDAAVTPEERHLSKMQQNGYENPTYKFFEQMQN
Method: as §2, §3

[8] = Tissue levels after i.v. injection of [14C]Chrysamine G in mice (blood-brain barrier, metabolism); type: in vivo, Swiss-Webster mice; settings: brain and liver extracted 60 min after i.v. injection
Method: Mice were sacrificed by cervical dislocation at intervals of 15 min, 35 min, 1 hr, 4 hr, and 24 hr after injection. The carotid blood, brain, liver, and kidneys were rapidly obtained, weighed, and homogenized in distilled/deionized H2O using a ground glass homogenizer. An aliquot was weighed into an 18.0 ml plastic scintillation vial (Beckman Poly-Q-Vial) and counted after addition of 10.0 ml of scintillation cocktail (Cytoscint®-ES (ICN)) and overnight equilibration.
Brain and liver were then removed and extracted with a Folch procedure. Folch et al., J. Biol. Chem. 226: 447 (1957). In both tissues, over 95% of the extracted radioactivity was contained in the organic layer. The organic layer was evaporated to dryness, resuspended in a minimal amount of 10% methanol/90% ACN, and injected onto a silica column (Prep Nova Pak HR Silica, 7.8×300 mm, Waters, Milford, Mass.) and eluted isocratically with the same solvent. Under these conditions, 99% of the radioactivity is eluted in the solvent front, but most lipids are retained longer, making the fraction eluting in the solvent front suitable for injection onto the reverse-phase C4 column system described above. […] One minute fractions were collected and counted after addition of 10 ml of Cytoscint®-ES.

[9] = test system: Down's syndrome brain samples; test: [14C]Chrysamine G binding to Down's syndrome brain samples; set-up: species or system human; settings: two patients; ratio to cerebellum (FIG. 9C)
Excerpt: Down's syndrome patients all develop deposits of Aβ by their fourth decade and many develop AD. Wisniewski et al., Neurology 35: 957 (1985); Schapiro et al., Neurobiol. Aging 13, 723 (1992).

[10] = target: synthetic Aβ (10-43) peptide (Homo sapiens, UniProt P05067); test: Scatchard analysis of Chrysamine G binding to synthetic Aβ (10-43)
Chain of synthetic Aβ (10-43) peptide (P05067 681-714): as the sequence (P05067 681-714) above
Excerpt: Hilbich et al., J. Mol. Biol. 218: 149 (1991). The 10-43 amino acid fragment of Aβ was synthesized with 9-fluorenylmethyl chloroformate (FMOC) chemistry by the Peptide Synthesis Facility of the University of Pittsburgh. […] The peptide was further purified by the method of Hilbich et al. which, in brief, consisted of sequential size-exclusion chromatography on a Biogel P10 column (2×180 cm, 200-400 mesh, Biorad, Richmond, Calif.) in 70% formic acid followed by a second elution through a Biogel P4 column (2×180 cm, 200-400 mesh) in 1M acetic acid. Hilbich et al., J. Mol. Biol. 218: 149 (1991). The peptide was lyophilized and stored at −80° C. until used in the binding assays.
as §1

[11] = test system: control brain homogenates; test: [14C]CG binding to control brain homogenates; set-up: species or system human
[12] = in vivo; settings: mouse
[13] = target: Aβ (10-43) (Homo sapiens, UniProt P05067); test: Kinetics of [14C]Chrysamine G binding to Aβ (10-43)
Chain of Aβ (10-43) (P05067 681-714): as above
Method: This mixture was vortexed and incubated for 30 min at room temperature.
Bennett, J. P. and Yamamura, H. I. in NEUROTRANSMITTER RECEPTOR BINDING (N.Y.: Raven Press 1985) pp. 61-89. […] The curve in FIG. 6C follows the equation: […]

[14] = Ki for inhibition of [14C]Chrysamine G binding to Aβ (10-43), Ki=IC50/(1+[L]/KD), KD 0.26 μM
[15] = PC-12 cells, Aβ (25-35), MTT reduction

Compound: O=C(O)c1cc(F)cc(N=Nc2ccc(-c3ccc(N=Nc4cc(F)cc(C(=O)O)c4O)cc3)cc2)c1O [(5-FSA)CG, 4,4′-bis(2-hydroxy-3-carboxy-5-fluorophenylazo)-biphenyl]
- Ki [1, 14]: 1160 ± 190 nM
- binding affinity in words [1]: one-third as potent as Chrysamine G

Compound: Cc1cc(-c2cc(C)c(N=Nc3ccc(O)c(C(=O)O)c3)c(C)c2)cc(C)c1N=Nc1ccc(O)c(C(=O)O)c1 [tetramethyl analog of Chrysamine G, 4,4′-bis(3-carboxy-4-hydroxyphenylazo)-3,3′,5,5′-tetramethylbiphenyl]
- Ki [1, 14]: 750 ± 90 nM
- binding affinity in words [1]: about twice that of Chrysamine G

Compound: O=C(O)c1cc(N=Nc2ccc(-c3ccc(N=Nc4ccc(O)c(C(=O)O)c4)cc3S(=O)(=O)O)c(S(=O)(=O)O)c2)ccc1O [2,2′-(SO3)2CG]
- binding affinity in words [1]: inactivity

Compound: Oc1ccc(N=Nc2ccc(-c3ccc(N=Nc4ccc(O)cc4)cc3)cc2)cc1 [phenol derivative]
- binding affinity in words [1]: completely destroyed binding affinity
- effect on toxicity induced by 1 μM Aβ (25-35) ([3]; PC-12 cells): no protective effects

Compound: Nc1c(/N=N/c2ccc(-c3ccc(/N=N/c4cc(S(=O)(=O)O)c5ccccc5c4N)cc3)cc2)cc(S(=O)(=O)O)c2ccccc12 [Congo red, reference compound]
- Ki [1, 14]: 2820 nM and 2800 nM
- concentration achieving complete protection [4]: 20 µM
- concentrations protecting against Aβ-induced toxicity [4]: over 2 μM
- brain/kidney ratio [5]: approximately 0.07
- octanol/water partition coefficient [2]: 0.665±0.037

Compound: O=C(O)c1cc(N=Nc2ccccc2)ccc1O [aniline derivative]
- energy of binding [1]: 5.5 kcal/mol
- Ki ([1]; read-out: Ki for inhibition of [14C]Chrysamine G binding to Aβ (10-43)): 73000 nM

Compound: O=C(O)c1cc(N=Nc2ccc(-c3ccc(N=Nc4ccc(O)c(C(=O)O)c4)cc3)cc2)ccc1O [Chrysamine G, 4,4′-bis(3-carboxy-4-hydroxyphenylazo)-biphenyl]
- saturable (specific) binding as share of total binding ([6]; AD brain homogenates): 60-80%
- total binding, AD ([6]; Cerebellum): 73 ± 9 (n = 11) fmol/μg protein
- total binding, AD ([6]; Frontal Pole): 124 ± 16 (n = 10) fmol/μg protein
- total binding, AD ([6]; Head of Caudate): 123 ± 22 (n = 7) fmol/μg protein
- total binding, AD ([6]; Inferior Parietal): 137 ± 19 (n = 11) fmol/μg protein
- total binding, AD ([6]; Occipital): 95 ± 12 (n = 11) fmol/μg protein
- total binding, AD ([6]; Superior Temporal): 121 ± 14 (n = 11) fmol/μg protein
- total binding, AD ([6]; Superior/Middle Frontal): 130 ± 21 (n = 11) fmol/μg protein
- Bmax in AD brain higher than control ([6]; not significant (p=0.09)): 36%
- KD in AD brain lower than control ([6]; not significant (p=0.29)): 16%
- Bmax (pmol/μg prot) ([7]; AD (n = 5)): 0.784 ± .061 pmol/μg prot
- Bmax, typical AD brain sample (FIG. 4B) ([7]; AD brain sample with 48 NP/×200 magnification): 790 fmol/μg protein
- Ki [1, 14]: 370 ± 40 nM
- energy of binding ([1]; ΔG=−RT ln Keq, Keq=1/KD≈1/Ki): roughly 38 KJ/mole
- recovered radioactivity co-eluting with authentic Chrysamine G on reverse phase HPLC [8]: > 95%
- binding in Down's syndrome brain compared with control [9]: above the control range
- Kd ([10]; Scatchard, two independent binding site model, read-out: KD, higher affinity component): 257 nM and 260 nM
- Bmax, higher affinity component ([10]; Scatchard, two-site model): 3.18 nmoles Chrysamine G/mg Aβ (10-43)
- Bmax, lower affinity component ([10]; Scatchard, two-site model, less well defined): 18.7 nmoles Chrysamine G/mg Aβ (10-43)
- Kd ([10]; whether measured by Scatchard analysis, kinetic methods, or inhibition of binding, read-out: dissociation constant): 250 to 400 nM
- Bmax, typical control brain sample (FIG. 4B) [11]: 614 fmol/μg protein
- total binding, Control ([11]; Cerebellum): 75 ± 13 (n = 8) fmol/μg protein
- Bmax (pmol/μg prot) ([11]; Control (n = 6)): 0.576 ± .092 pmol/μg prot
- Kd ([11]; Control (n = 6), read-out: KD): 470 ± 49 nM
- total binding, Control ([11]; Frontal Pole): 58 ± 8 (n = 6) fmol/μg protein
- total binding, Control ([11]; Head of Caudate): 73 ± 11 (n = 4) fmol/μg protein
- total binding, Control ([11]; Inferior Parietal): 76 ± 13 (n = 8) fmol/μg protein
- total binding, Control ([11]; Occipital): 64 ± 16 (n = 8) fmol/μg protein
- total binding, Control ([11]; Superior Temporal): 66 ± 17 (n = 8) fmol/μg protein
- total binding, Control ([11]; Superior/Middle Frontal): 54 ± 10 (n = 8) fmol/μg protein
- Kd ([11]; read-out: KD, typical control brain sample (FIG. 4B)): 480 nM
- LD50 at 72 h [12]: > 100 mg/kg
- MTT reduction with compound alone versus control [3]: no significant difference
- concentration at which the protective effect is evident [3, 15]: 0.2 µM
- concentration range showing effects [3, 15]: 0.1 to 1.0 µM
- effect on toxicity induced by 1 μM Aβ (25-35) ([3]; PC-12 cells): protective effects at 0.1 and 1 μM
- time by which association is essentially complete ([13]; [Chrysamine G]=112 μM): ≤ 1 min
- Kd ([13]; from kinetic constants, read-out: KD=k−1/k1): 340 nM
- times more lipophilic than Congo red ([2]; from partition coefficients): approximately 90

Second part, the molecule after the results:

- binding affinity in words [1]: total lack of binding activity
Compound: O=C(O)c1ccccc1O [salicylic acid, reference compound]

- decrease in affinity / loss of activity relative to Chrysamine G [1]: about 200 fold
Compound: COC(=O)c1cc(N=Nc2ccc(-c3ccc(N=Nc4ccc(O)c(C(=O)OC)c4)cc3)cc2)ccc1O [CG(COOMe)2, 4,4′-bis(3-methoxycarbonyl-4-hydroxyphenylazo)-biphenyl]

- binding affinity in words [1]: about half that of Chrysamine G
Compound: O=C(O)c1cc(N=Nc2ccc(-c3ccc(N=Nc4ccc(O)c(C(=O)O)c4)c(Br)c3)cc2Br)ccc1O [3,3′-Br2CG]

- binding affinity in words [1]: about half that of Chrysamine G
Compound: O=C(O)c1cc(N=Nc2ccc(-c3ccc(N=Nc4ccc(O)c(C(=O)O)c4)c(Cl)c3)cc2Cl)ccc1O [3,3′-Cl2CG]

- binding affinity in words [1]: about half that of Chrysamine G
- octanol/water partition coefficient [2]: 112.9±7.3
Compound: O=C(O)c1cc(N=Nc2ccc(-c3ccc(N=Nc4ccc(O)c(C(=O)O)c4)c(I)c3)cc2I)ccc1O [3,3′-I2CG]

- decrease in affinity / loss of activity relative to Chrysamine G [1]: 7 fold
Compound: O=C(O)c1cc(N=Nc2ccc(-c3ccc(N=Nc4ccc(O)c(C(=O)O)c4)c(C(=O)O)c3)cc2C(=O)O)ccc1O [3,3′-(COOH)2CG]
